Experimental data as given in US11919856B2, “Compounds” (UCL BUSINESS LTD, priority 2018, dated 2024).

Tests used:
[1] = In vitro clearance in cryopreserved hepatocytes, dog; assay type: in vitro ADME
M α1-antitrypsin [2] = target: T1, M α1-antitrypsin (Homo sapiens, UniProt P01009); assay: Compound association experiments (intrinsic tryptophan fluorescence), M α1-antitrypsin; assay type: binding
T1 construct: Alpha1-antitrypsin was purified from the plasma of ZZ and MM α1-antitrypsin homozygotes; from tissue; host or cells: plasma of MM homozygotes
T1 sequence (P01009 25-418): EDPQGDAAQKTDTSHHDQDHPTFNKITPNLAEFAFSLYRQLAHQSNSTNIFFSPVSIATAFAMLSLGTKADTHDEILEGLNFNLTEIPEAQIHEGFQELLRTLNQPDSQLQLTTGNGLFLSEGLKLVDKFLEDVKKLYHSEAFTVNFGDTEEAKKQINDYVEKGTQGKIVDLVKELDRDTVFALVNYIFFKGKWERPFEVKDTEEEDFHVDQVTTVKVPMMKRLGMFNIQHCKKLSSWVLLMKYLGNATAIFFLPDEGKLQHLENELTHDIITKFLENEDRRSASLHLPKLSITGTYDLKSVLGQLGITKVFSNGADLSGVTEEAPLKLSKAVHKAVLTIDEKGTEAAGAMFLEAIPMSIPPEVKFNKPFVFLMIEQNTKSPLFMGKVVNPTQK
Method: The intrinsic tryptophan fluorescence of α1-antitrypsin is dominated by Trp194 in the breach region (Tew et al. J Mol Biol. 2001 Nov. 9; 313(5):1161-9) and can be used to monitor the progress of compound binding. Plasma M and Z α1-antitrypsin were diluted to 0.2 mg/ml in 100 μM PBS, and Compound 1 (or an equivalent volume of DMSO) added to a concentration of 10 μM. Fluorescence (λex=280 nm, λem=330 nm) was monitored for at least 2 hours, and the half-time of change was calculated.
Kinetic data in stopped flow experiments were fitted to exponential decay curves with offset and linear slope, to account for a constant drift in the background, resulting in observed pseudo-first-order rate constants k(obs): y=A0·e^−k(obs)t+slope·t+offset where t=time and Ao=amplitude at t=0. The second-order on-rate was then obtained as the slope when plotting k(obs) values versus compound concentration. Off-rates were calculated from the on-rates and the KD values determined from the binding assays. Cell Biology

Z α1-antitrypsin [3] = target: T2, Z α1-antitrypsin (Homo sapiens, UniProt P01009, E366K/V237A); assay: Secretion of Z α1-antitrypsin from iPSC-derived hepatocytes (ZZ genotype); assay type: cell-based; design: a random insertion of the human Z α1-antitrypsin gene; from tissue; host or cells: liver and plasma of Z α1-antitrypsin transgenic mice (human Z transgene)
T2 sequence (P01009 25-418 V237A/E366K): as the sequence (P01009 25-418) above, with V213A, E342K counted along it
Method: In order to confirm that the potency and efficacy of Compound 1 in CHO-TET-ON-Z-A1AT was a reasonable estimate of what could be expected in hepatocytes with endogenous levels of expression, the effect of Compound 1 on the secretion and polymerisation of Z α1-antitrypsin was measured in iPSC-derived hepatocytes with the ZZ α1-antitrypsin genotype (Yusa et al. Nature. 2011; 478:391-4).

Z α1-antitrypsin [4] = target: T2, Z α1-antitrypsin; assay: Rapid refolding (non-denaturing PAGE); assay type: biochemical; details: snap dilution refolding
Method: Refolding of α1-antitrypsin in vitro is not fully reversible, due to loss of material from amorphous aggregation, polymerisation and misfolding. These contributions cannot be readily deconvoluted by bulk spectroscopic methods and therefore refolding was evaluated by non-denaturing PAGE. M and Z α1-antitrypsin at 9.6 mg/ml were denatured in 6 M urea and 15 mM sodium phosphate pH 8.0 for 4 hours at room temperature, and 1.25 μl was snap refolded into 250 μl PBS containing 0-50 μM Compound 1 and a normalised concentration of 5% v/v DMSO. After incubation for 1 hour at room temperature samples were analysed by Coomassie-stained 3-12% w/v acrylamide Bis-Tris Native PAGE gel (Life Technologies).
Mutations that interfere with the opening of […] or that perturb its interaction with the N-terminal portion of the reactive centre loop alter the ability of serpins to inhibit target proteases. The stoichiometry of inhibition (SI) was determined for M and Z α1-antitrypsin in discontinuous experiments against a model target protease, chymotrypsin. The pre-incubation of both variants with Compound 1 led to a >98% loss of protease inhibitory activity. […]

M α1-antitrypsin [5] = target: T1, M α1-antitrypsin; assay: Biochemical competition binding assay (TR-FRET), M α1-antitrypsin; details: selectivity Z over M
Method: Alpha1-antitrypsin was purified from the plasma of ZZ and MM α1-antitrypsin homozygotes as described in Lomas et al., Biochemistry. 1993; 32:500-8. Recombinant Cys232Ser α1-antitrypsin was expressed and purified as detailed in Irving et al. Methods Enzymol. 2011; 501:421-66 and Haq et al. Biosci Rep. 2013; 33(3):e00046.
A fluorescent derivative of compound 1 was prepared by derivatizing compound 1 at its ring nitrogen atom with an Alexa Fluor 488 label via a short organic linker group.
A serial dilution of test compounds in DMSO was diluted 25-fold with assay buffer, and 2.5 μl of this intermediate dilution transferred to a black, low-volume 384-well microtitre plate (Greiner BioOne; product no. 784076). […]
Plates were sealed and incubated overnight at room temperature, or for 3 days at 4° C. then 6 hours at room temperature. […] The TR-FRET signal was read on an Envision plate reader, by excitation of Terbium at 337 nm and detection of emission at 520 nm and 495 nm.
Dissociation constants (KD) for the affinity of compounds to Z-a1AT or M-a1AT protein were derived from the pIC50 values according to the Cheng-Prusoff equation, taking into account the concentration of fluorescent ligand used in relation to its affinity as determined in independent Fluorescence Polarisation and TR-FRET experiments: KD(compound)=10^−pIC50(compound)/([…]. Compound Association Experiments

CCC[C@@H](NC(=O)c1cccc2c1CC(=O)N2)[C@@H](O)c1cccc(F)c1C [Compound 1, N-[(1S,2R)-1-(3-fluoro-2-methylphenyl)-1-hydroxypentan-2-yl]-2-oxo-2,3-dihydro-1H-indole-4-carboxamide]
in vitro clearance in cryopreserved hepatocytes [1]: < 0.65 mL/min/g | koff (M α1-antitrypsin [2]; calculated from on-rate and KD, read-out: first-order dissociation rate): 1.6e-05 s⁻¹ | kon (M α1-antitrypsin [2]; read-out: second-order association rate): 210 M⁻¹ s⁻¹ | increase of secreted levels of Z α1-antitrypsin (Z α1-antitrypsin [3]): approximately 3 fold | EC50 (Z α1-antitrypsin [3]; read-out: pEC50, secretion of Z α1-antitrypsin (converted)): 316 nM | anodally-shifted migration (misfolded byproduct) of refolded Z variant (Z α1-antitrypsin [4]): corrected at stoichiometric concentrations and above | fold lower affinity for plasma-purified wild-type M α1-antitrypsin (M α1-antitrypsin [5]): at least 50 fold
